Source: the supplement of paper PMC10307832

Legend:
Assay in all cases: relative viability (nuclei count vs DMSO), 5 days (fraction); higher = more cells survive
Vemurafenib + Alpelisib = compound: CCCS(=O)(=O)Nc1ccc(F)c(C(=O)c2c[nH]c3ncc(-c4ccc(Cl)cc4)cc23)c1F [Vemurafenib] + Cc1nc(NC(=O)N2CCC[C@H]2C(N)=O)sc1-c1ccnc(C(C)(C)C(F)(F)F)c1 [Alpelisib] (partner 2 µM)
Procedure, shortened: (§1)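 A single step with final 0.05% Triton X-100, 1% formaldehyde and 1 ug/ml Hoechst fixed the cells and stained nuclei 5 days after treatment. Lung cancer cell lines in 1536-well plates had been treated by pin tool the day after seeding with one drug alone or a fixed anchor-drug dose plus five library-drug doses (not always all listed) in √10 steps, and nuclei were counted on 4× images. Relative viability is the ratio of nuclei in treated wells to nuclei in vehicle wells, taken as the median of duplicate plates.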

OSI-027 + Linsitinib = compound: COc1cccc2cc(-c3nc([C@H]4CC[C@H](C(=O)O)CC4)n4ncnc(N)c34)[nH]c12 [OSI-027] + C[C@]1(O)C[C@@H](c2nc(-c3ccc4ccc(-c5ccccc5)nc4c3)c3c(N)nccn32)C1 [Linsitinib] (partner 1 µM)
Procedure, shortened: as §1

OSI-027 + Pemetrexed = compound: COc1cccc2cc(-c3nc([C@H]4CC[C@H](C(=O)O)CC4)n4ncnc(N)c34)[nH]c12 [OSI-027] + Nc1nc2[nH]cc(CCc3ccc(C(=O)N[C@@H](CCC(=O)O)C(=O)O)cc3)c2c(=O)[nH]1 [Pemetrexed] (partner 0.2 µM)
Procedure, shortened: as §1

Alpelisib + Decitabine = compound: Cc1nc(NC(=O)N2CCC[C@H]2C(N)=O)sc1-c1ccnc(C(C)(C)C(F)(F)F)c1 [Alpelisib] + Nc1ncn([C@H]2C[C@H](O)[C@@H](CO)O2)c(=O)n1 [Decitabine] (partner 2 µM)
Procedure, shortened: as §1

Cell Line | relative viability (Vemurafenib + Alpelisib; first compound 0.03162 µM) | relative viability (Vemurafenib + Alpelisib; first compound 0.1 µM) | relative viability (Vemurafenib + Alpelisib; first compound 0.3162 µM) | relative viability (Vemurafenib + Alpelisib; first compound 1 µM) | relative viability (OSI-027 + Linsitinib; first compound 0.01 µM) | relative viability (OSI-027 + Linsitinib; first compound 0.03162 µM) | relative viability (OSI-027 + Linsitinib; first compound 0.1 µM) | relative viability (OSI-027 + Linsitinib; first compound 0.3162 µM) | relative viability (OSI-027 + Linsitinib; first compound 1 µM) | relative viability (OSI-027 + Pemetrexed; first compound 0.01 µM) | relative viability (OSI-027 + Pemetrexed; first compound 0.03162 µM) | relative viability (OSI-027 + Pemetrexed; first compound 0.1 µM) | relative viability (OSI-027 + Pemetrexed; first compound 0.3162 µM) | relative viability (OSI-027 + Pemetrexed; first compound 1 µM) | relative viability (Alpelisib + Decitabine; first compound 0.04 µM) | relative viability (Alpelisib + Decitabine; first compound 0.1265 µM) | relative viability (Alpelisib + Decitabine; first compound 0.4 µM) | relative viability (Alpelisib + Decitabine; first compound 1.265 µM) | relative viability (Alpelisib + Decitabine; first compound 4 µM)
NCI-H1755 | 0.906 | 0.83 | 0.869 | 0.791 | 0.976 | 1.05 | 1.02 | 0.885 | 0.392 | 0.5 | 0.417 | 0.454 | 0.655 | 0.439 | 0.661 | 0.69 | 0.778 | 0.678 | 0.575
NCI-H1792 | 0.624 | 0.673 | 0.61 | 0.693 | 0.466 | 0.237 | 0.394 | 0.229 | 0.22 | 0.569 | 0.852 | 0.757 | 0.635 | 0.214 | 0.444 | 0.368 | 0.581 | 0.443 | 0.401
NCI-H1793 | 0.659 | – | 0.758 | 0.808 | 1.04 | 0.875 | 0.612 | 0.225 | 0.188 | 0.795 | 0.866 | 0.468 | 0.391 | 0.209 | 0.539 | 0.466 | 0.449 | 0.388 | 0.275
NCI-H1915 | 1.02 | 1.04 | 1.03 | 0.993 | 1.11 | 1.13 | 1.12 | 1.02 | 0.863 | 0.546 | 0.516 | 0.47 | 0.449 | 0.536 | 0.267 | 0.285 | 0.255 | 0.265 | 0.251
NCI-H1944 | 0.811 | 0.572 | 0.85 | 0.837 | 1.11 | 1.14 | 1.05 | 0.771 | 0.836 | 0.657 | 0.691 | 0.77 | 0.59 | 0.519 | 0.429 | 0.44 | 0.413 | 0.37 | 0.384
NCI-H1975 | 0.582 | 0.608 | 0.526 | 0.629 | 1.09 | 1.03 | 0.822 | 0.706 | 0.339 | 0.336 | 0.275 | 0.292 | 0.303 | 0.259 | 0.39 | 0.357 | 0.387 | 0.366 | 0.268
NCI-H1993 | 0.62 | – | 0.585 | 0.647 | 0.684 | 0.777 | 0.703 | 0.603 | 0.681 | 0.533 | 0.41 | 0.522 | 0.465 | 0.45 | 0.547 | 0.561 | 0.592 | 0.494 | 0.671
NCI-H2009 | 1.16 | 1.1 | 1.02 | 1.11 | 1.25 | 1.2 | 1.16 | 1.03 | 0.765 | 1.15 | 1.05 | 1.04 | 0.998 | 0.687 | 0.35 | 0.458 | 0.398 | 0.389 | 0.354
NCI-H2023 | 0.614 | 0.524 | 0.749 | 0.538 | 0.622 | 0.507 | 0.566 | 0.292 | 0.143 | 0.254 | 0.242 | 0.201 | 0.173 | 0.121 | 0.205 | 0.188 | 0.234 | 0.245 | 0.183
NCI-H2085 | 0.956 | 0.826 | 0.902 | 1 | 0.884 | 0.847 | 0.82 | 0.753 | 0.422 | 0.776 | 0.879 | 0.797 | 0.841 | 0.795 | 0.601 | 0.524 | 0.538 | 0.574 | 0.467
NCI-H2087 | 1.08 | 1.02 | – | 1.07 | 1.03 | 0.845 | 0.819 | 0.632 | 0.29 | 0.696 | 0.674 | 0.694 | 0.533 | 0.338 | 0.311 | 0.203 | 0.325 | 0.26 | 0.135
NCI-H2126 | 0.718 | 0.709 | 0.758 | 0.789 | 0.739 | 0.593 | 0.536 | 0.416 | 0.701 | 0.677 | 0.676 | 0.663 | 0.688 | 0.512 | 0.586 | 0.576 | 0.607 | 0.454 | 0.428
NCI-H2347 | 1.01 | 1.02 | 0.757 | 1.04 | 1.03 | 0.877 | 0.883 | 0.885 | 0.521 | 0.438 | 0.439 | 0.484 | 0.404 | 0.427 | 0.641 | 0.635 | 0.657 | 0.539 | 0.571
NCI-H2405 | 0.708 | 0.675 | – | 0.785 | 0.871 | 0.81 | 0.702 | 0.404 | 0.393 | 0.854 | 1.01 | 0.922 | 0.85 | 0.448 | 0.756 | 0.731 | 0.699 | 0.517 | 0.58
NCI-H3122 | 0.814 | 0.761 | 0.896 | 0.862 | 1.04 | 1.04 | 1.07 | 0.763 | 0.289 | 0.207 | 0.198 | 0.19 | 0.207 | 0.243 | 0.371 | 0.454 | 0.374 | 0.278 | 0.209
PC-3 [JPC-3] | 0.985 | – | 1.11 | 1.07 | 0.943 | 1.01 | 0.971 | 0.867 | 0.834 | 0.464 | 1.1 | 0.775 | 0.84 | 0.785 | 0.798 | 0.757 | 0.887 | 0.813 | 0.79
PC-14 | 0.881 | – | 0.907 | 0.903 | 0.944 | 0.946 | 0.891 | 0.914 | 0.582 | 0.136 | 0.149 | 0.149 | 0.139 | 0.191 | 0.244 | 0.243 | 0.248 | 0.196 | 0.221
